The values that follow come from US12351570B2 (MERCK PATENT GMBH, priority 2018, dated 2025).

Broadly, the IC50 is the midpoint of a concentration-inhibition curve.

The test system of the experiment is MDA-MB-231 cells. The experiment in a line: Extracellular lactate production inhibition after 4 h, MDA-MB-231. Particulars: Homo sapiens, MDA-MB-231.
Experimental: Extracellular Lactate Production Inhibition after 4 h
Cells were plated in growth media supplemented with 10% FBS, followed by overnight recovery at 37° C., 5% CO2. […] Plates were then moved for 4 h incubation at 37° C., 5% CO2 with subsequent 20 μl media transfer to empty 384-well transparent plates. […] Plates were short-spun and measured kinetically in absorbance mode (530 nm, 12 min measurement time with 2-minute intervals between subsequent readouts at 30° C.). Differences in the signal between T8 min and T0min were normalized to vehicle (cells w/ 0.25% DMSO) and quasi-positive (LCIS buffer w/ 0.25% DMSO) controls and plotted against logarithmically-transformed test compound concentrations with fitting the 4-parameter model in GraphPad Prism software.
Turning to `O=C(O)c1ccc(C#Cc2ccccc2NS(=O)(=O)c2ccc3c(c2)Cc2ccccc2-3)cn1` [Compound 92, 5-{2-[2-(9H-fluorene-2-sulfonamido)phenyl]ethynyl}pyridine-2-carboxylic acid], the IC50 fell in the range of 10 to 100 nM.
With `O=C(O)c1ccc(C#Cc2ccccc2NS(=O)(=O)C2Cc3ccccc3C2)cc1` [Compound 93, 4-{2-[2-(2,3-dihydro-1H-indene-2-sulfonamido)phenyl]ethynyl}benzoic acid] the figure was 1000 to 100000 nM; with `Cc1ccccc1-c1cccc(S(=O)(=O)Nc2ccccc2C#Cc2ccc(C(=O)O)nc2)c1` [Compound 94, 5-[2-(2-{2′-methyl-[1,1′-biphenyl]-3-sulfonamido}phenyl)ethynyl]pyridine-2-carboxylic acid], 1000 to 100000 nM.
`O=C(O)c1ccc(C#Cc2ccccc2NS(=O)(=O)c2cccc(Br)c2)cn1` [Compound 95, 5-{2-[2-(3-bromobenzenesulfonamido)phenyl]-ethynyl}pyridine-2-carboxylic acid] showed an IC50 of 1000 to 100000 nM.
Consider `O=C(O)c1ccc(C#Cc2ccccc2NS(=O)(=O)c2cccc(-c3ccccc3)c2)cn1` [Compound 96, 5-[2-(2-{[1,1′-biphenyl]-3-sulfonamido}phenyl)ethynyl]pyridine-2-carboxylic acid], for which the IC50 was 100 to 1000 nM.
The molecule `Cc1c(S(=O)(=O)Nc2ccccc2C#Cc2ccc(C(=O)O)nc2)ccc2ccccc12` [Compound 97, 5-{2-[2-(1-methylnaphthalene-2-sulfonamido)phenyl]ethynyl}pyridine-2-carboxylic acid] showed an IC50 of 100 to 1000 nM.
Regarding `O=C(O)c1ccc(C#Cc2ccccc2NS(=O)(=O)c2c(Cl)nc3sccn23)cn1` [Compound 98, 5-[2-(2-{6-chloroimidazo[2,1-b][1,3]thiazole-5-sulfonamido}phenyl)-ethynyl]pyridine-2-carboxylic acid], the half-maximal inhibitory concentration (IC50) lay in the range of 1000 to 100000 nM.
Take `O=C(O)c1ccc(C#Cc2ccccc2NS(=O)(=O)c2ccc(Cl)c3nonc23)cn1` [Compound 99, 5-{2-[2-(7-chloro-2,1,3-benzoxadiazole-4-sulfonamido)phenyl]ethynyl}pyridine-2-carboxylic acid]: the IC50 was 1000 to 100000 nM.
With `Cc1ccc2cccnc2c1S(=O)(=O)Nc1ccccc1C#Cc1ccc(C(=O)O)nc1C` [Compound 100, 6-methyl-5-{2-[2-(7-methylquinoline-8-sulfonamido)phenyl]ethynyl}pyridine-2-carboxylic acid] the figure was 1000 to 100000 nM; with `O=C(O)c1ccc(C#Cc2c(F)cccc2NS(=O)(=O)c2cccc3cccnc23)cn1` [Compound 101, 5-{2-[2-fluoro-6-(quinoline-8-sulfonamido)phenyl]ethynyl}pyridine-2-carboxylic acid], 1000 to 100000 nM; with `Cc1cc(C#Cc2ccccc2NS(=O)(=O)c2c(C)ccc3cccnc23)cnc1C(=O)O` [Compound 102, 3-methyl-5-{2-[2-(7-methylquinoline-8-sulfonamido)phenyl]ethynyl}pyridine-2-carboxylic acid], 10 to 100 nM.
Molecule `O=C(O)c1ccc(C#Cc2ccccc2NS(=O)(=O)N2CCC3CCCCC3C2)cn1` (stereo not drawn) [Compound 103, 5-(2-{2-[(decahydroisoquinoline-2-sulfonyl)amino]phenyl}ethynyl)pyridine-2-carboxylic acid] registered an IC50 of 100 to 1000 nM.
As to `O=C(O)c1ccc(C#Cc2ccccc2NS(=O)(=O)c2csc3ccccc23)cn1` [Compound 104, 5-{2-[2-(1-benzothiophene-3-sulfonamido)phenyl]ethynyl}pyridine-2-carboxylic acid], the IC50 lay within 100 to 1000 nM.
On to `O=C(O)c1ccc(C#Cc2ccccc2NS(=O)(=O)c2cccc(N3CCOCC3)c2)cn1` [Compound 105, 5-(2-{2-[3-(morpholin-4-yl)benzenesulfonamido]phenyl}-ethynyl)pyridine-2-carboxylic acid], for which the IC50 fell in the range of 1000 to 100000 nM.
With `Cc1ccc2cccnc2c1S(=O)(=O)Nc1c(F)cccc1C#Cc1ccc(C(=O)O)nc1` [Compound 106, 5-{2-[3-fluoro-2-(7-methylquinoline-8-sulfonamido)phenyl]ethynyl}pyridine-2-carboxylic acid] the figure was 1000 to 100000 nM.
With `Cc1cc(C(=O)O)ncc1C#Cc1ccccc1NS(=O)(=O)c1c(C)ccc2cccnc12` [Compound 107, 4-methyl-5-{2-[2-(7-methylquinoline-8-sulfonamido)phenyl]ethynyl}pyridine-2-carboxylic acid] the figure was 10 to 100 nM.
With `O=C(O)c1ccc(C#Cc2ccccc2NS(=O)(=O)c2cccc3c2oc2ccccc23)cn1` [Compound 108, 5-[2-(Dibenzofuran-4-sulfonylamino)-phenylethynyl]-pyridine-2-carboxylic acid (5-[2-(2-{8-oxatricyclo[7.4.0.0^2,7]trideca-1(9),2,4,6,10,12-hexaene-6-sulfonamido}phenyl)ethynyl]pyridine-2-carboxylic acid)], the IC50 was in the range of 10 to 100 nM.
With `O=C(O)c1ccc(C#Cc2ccccc2NS(=O)(=O)c2cccc3scnc23)cn1` [Compound 109, 5-{2-[2-(1,3-benzothiazole-4-sulfonamido)phenyl]ethynyl}pyridine-2-carboxylic acid] the figure was 100 to 1000 nM; with `COc1ccc(S(=O)(=O)Nc2ccccc2C#Cc2cnc(C(=O)O)cc2C)c2ncccc12` [Compound 110, 5-{2-[2-(5-methoxyquinoline-8-sulfonamido)phenyl]ethynyl}-4-methylpyridine-2-carboxylic acid], 10 to 100 nM; with `O=C(O)c1ccc(C#Cc2cc(F)ccc2NS(=O)(=O)c2cccc3cccnc23)cn1` [Compound 111, 5-{2-[5-fluoro-2-(quinoline-8-sulfonamido)phenyl]ethynyl}pyridine-2-carboxylic acid], 100 to 1000 nM.
`Cc1ccc2cccnc2c1S(=O)(=O)Nc1ccc(F)cc1C#Cc1ccc(C(=O)O)nc1` [Compound 112, 5-{2-[5-fluoro-2-(7-methylquinoline-8-sulfonamido)phenyl]ethynyl}pyridine-2-carboxylic acid]: the IC50 lay within 10 to 100 nM.
With `O=C(O)c1ccc(C#Cc2ccccc2NS(=O)(=O)N2CCc3ccccc3C2)cn1` [Compound 113, 5-(2-{2-[(1,2,3,4-tetrahydroisoquinoline-2-sulfonyl)amino]phenyl}ethynyl)pyridine-2-carboxylic acid] the figure was 1000 to 100000 nM.
Then `COc1ccccc1-c1cccc(S(=O)(=O)Nc2ccccc2C#Cc2ccc(C(=O)O)nc2)c1` [Compound 114, 5-[2-(2-{2′-methoxy-[1,1′-biphenyl]-3-sulfonamido}phenyl)ethynyl]pyridine-2-carboxylic acid], with 100 to 1000 nM.
The molecule `O=CN(Cc1ccc2ccccc2c1)c1ccccc1C#Cc1ccc(C(=O)O)nc1` [Compound 115, 5-[2-(2-{N-[(naphthalen-2-yl)methyl]formamido}phenyl)ethynyl]-pyridine-2-carboxylic acid] had a 50% inhibitory concentration (IC50) of 100 to 1000 nM.
On to `CC(=O)N(Cc1ccc2ccccc2c1)c1ccccc1C#Cc1ccc(C(=O)O)nc1` [Compound 116, 5-[2-(2-{N-[(naphthalen-2-yl)methyl]acetamido}phenyl)ethynyl]-pyridine-2-carboxylic acid], for which the IC50 lay in the range of 100 to 1000 nM.
Then `COc1ccc2cccc(S(=O)(=O)Nc3ccccc3C#Cc3ccc(C(=O)O)nc3)c2n1` [Compound 117, 5-{2-[2-(2-methoxyquinoline-8-sulfonamido)phenyl]ethynyl}pyridine-2-carboxylic acid], with 100 to 1000 nM; and `Cc1cc(C#Cc2ccccc2NS(=O)(=O)c2ccc3c(c2)Cc2ccccc2-3)cnc1C(=O)O` [Compound 118, 5-{2-[2-(9H-fluorene-2-sulfonamido)phenyl]ethynyl}-3-methylpyridine-2-carboxylic acid], with 100 to 1000 nM; and `Cc1cc(C(=O)O)ncc1C#Cc1ccccc1NS(=O)(=O)c1ccc2c(c1)Cc1ccccc1-2` [Compound 119, 5-{2-[2-(9H-fluorene-2-sulfonamido)phenyl]ethynyl}-4-methylpyridine-2-carboxylic acid], with 100 to 1000 nM.
With `CS(=O)(=O)N(Cc1ccc2ccccc2n1)c1ccccc1C#Cc1ccc(C(=O)O)nc1` [Compound 120, 5-[2-(2-{N-[(quinolin-2-yl)methyl]methanesulfonamido}phenyl)ethynyl]pyridine-2-carboxylic acid] the figure was 1000 to 100000 nM; with `CC(=O)N(Cc1ccc2ccccc2n1)c1ccccc1C#Cc1ccc(C(=O)O)nc1` [Compound 121, 5-[2-(2-{N-[(quinolin-2-yl)methyl]acetamido}phenyl)ethynyl]-pyridine-2-carboxylic acid], 100 to 1000 nM.
Then `COC(=O)c1cc(C)c(C#Cc2ccccc2NS(=O)(=O)c2ccc(OC)c3cccnc23)cn1` [Compound 122, methyl 5-{2-[2-(5-methoxyquinoline-8-sulfonamido)phenyl]ethynyl}-4-methylpyridine-2-carboxylate], with 10 to 100 nM; and `COc1ccc(S(=O)(=O)N(C)c2ccccc2C#Cc2cnc(C(=O)O)cc2C)c2ncccc12` [Compound 123, 4-methyl-5-{2-[2-(N-methyl5-methoxyquinoline-8-sulfonamido)phenyl]ethynyl}pyridine-2-carboxylic acid], with 1000 to 100000 nM; and `O=C(O)c1ccc(C#Cc2ccccc2NS(=O)(=O)c2ccc3c(c2)[nH]c2ccccc23)cn1` [Compound 124, 5-{2-[2-(9H-carbazole-2-sulfonamido)phenyl]ethynyl}pyridine-2-carboxylic acid], with 100 to 1000 nM.
Molecule `COc1ccc(-c2cccc(S(=O)(=O)Nc3ccccc3C#Cc3ccc(C(=O)O)nc3)c2)c(OC)n1` [Compound 125, 5-(2-{2-[3-(2,6-dimethoxypyridin-3-yl)benzenesulfonamido]phenyl}-ethynyl)pyridine-2-carboxylic acid] registered a concentration for half-maximal inhibition (IC50) of 100 to 1000 nM.
Regarding `O=C(O)c1ccc(C#Cc2ccccc2NS(=O)(=O)N2CCc3ccccc32)cn1` [Compound 126, 5-(2-{2-[(2,3-dihydro-1H-indole-1-sulfonyl)amino]phenyl}ethynyl)pyridine-2-carboxylic acid], the IC50 was in the range of 100 to 1000 nM.
For the molecule `COc1cccc(-c2cccc(S(=O)(=O)Nc3ccccc3C#Cc3ccc(C(=O)O)nc3)c2)n1` [Compound 127, 5-(2-{2-[3-(6-methoxypyridin-2-yl)benzenesulfonamido]phenyl}-ethynyl)pyridine-2-carboxylic acid], the IC50 lay within 100 to 1000 nM.
